Experiment: Phase I dose escalation study: safety, tolerability, DLT and MTD
Type: in vivo

Cc1cccc2c1NC(=O)[C@@H](NC(=O)[C@H](CCC(F)(F)F)[C@H](CCC(F)(F)F)C(N)=O)N=C2c1cccc(F)c1 [BMS-986115]
13 (36) n (%): Decreased Appetite (drug related AE, all grades) (All patients (N = 36))
10 (28) n (%): Hypokalaemia (drug related AE, all grades) (All patients (N = 36))
1 (3) n (%): Abdominal pain (drug related AE, Grade 3 and 4) (All patients (N = 36)) | Colitis (drug related AE, Grade 3 and 4) (All patients (N = 36)) | Cough (drug related AE, Grade 3 and 4) (All patients (N = 36)) | Decreased Appetite (drug related AE, Grade 3 and 4) (All patients (N = 36)) | Dehydration (drug related AE, Grade 3 and 4) (All patients (N = 36)) | Fatigue (drug related AE, Grade 3 and 4) (All patients (N = 36)) | Hypocalcaemia (drug related AE, Grade 3 and 4) (All patients (N = 36)) | Ileus (drug related AE, Grade 3 and 4) (All patients (N = 36)) | Leucocytosis (drug related AE, Grade 3 and 4) (All patients (N = 36)) | Pruritus (drug related AE, Grade 3 and 4) (All patients (N = 36)) | Pulmonary embolism (drug related AE, Grade 3 and 4) (All patients (N = 36)) | Urticaria (drug related AE, Grade 3 and 4) (All patients (N = 36)) | Vomiting (drug related AE, Grade 3 and 4) (All patients (N = 36))
5 (14) n (%): Dehydration (drug related AE, all grades) (All patients (N = 36)) | Dry skin (drug related AE, all grades) (All patients (N = 36)) | Dysgeusia (drug related AE, all grades) (All patients (N = 36)) | Dysphonia (drug related AE, all grades) (All patients (N = 36)) | Rash maculopapular (drug related AE, all grades) (All patients (N = 36))
7 (19) n (%): Diarrhoea (drug related AE, Grade 3 and 4) (All patients (N = 36))
26 (72) n (%): Diarrhoea (drug related AE, all grades) (All patients (N = 36))
22 (61) n (%): Nausea (drug related AE, all grades) (All patients (N = 36))
9 (25) n (%): Pruritus (drug related AE, all grades) (All patients (N = 36))
2 (100) n (%): Hypophosphataemia (drug related AE, all grades) (Arm A QD 0.3 mg (N = 2))
6 subjects: Subjects with treatment-related SAEs (Arm A QD)
14 (39) n (%): Hypophosphataemia (drug related AE, Grade 3 and 4) (All patients (N = 36))
1 (50) n (%): Hypophosphataemia (drug related AE, Grade 3 and 4) (Arm A QD 0.3 mg (N = 2)) | Pruritus (drug related AE, all grades) (Arm A QD 0.3 mg (N = 2)) | Rash (drug related AE, all grades) (Arm A QD 0.3 mg (N = 2)) | Sinusitis (drug related AE, all grades) (Arm A QD 0.3 mg (N = 2)) | Diarrhoea (drug related AE, all grades) (Arm A QD 0.6 mg (N = 2)) | Hypophosphataemia (drug related AE, all grades) (Arm A QD 0.6 mg (N = 2)) | Nausea (drug related AE, all grades) (Arm A QD 0.6 mg (N = 2)) | Rash (drug related AE, all grades) (Arm A QD 0.6 mg (N = 2))
3 (8) n (%): Abdominal pain (drug related AE, all grades) (All patients (N = 36)) | Dry mouth (drug related AE, all grades) (All patients (N = 36)) | Dyspepsia (drug related AE, all grades) (All patients (N = 36)) | Flatulence (drug related AE, all grades) (All patients (N = 36)) | Increased upper airway secretion (drug related AE, all grades) (All patients (N = 36)) | Mouth ulceration (drug related AE, all grades) (All patients (N = 36))
0 n (%): Abdominal distension (drug related AE, all grades) (Arm A QD 0.3 mg (N = 2)) | Abdominal pain (drug related AE, Grade 3 and 4) (Arm A QD 0.3 mg (N = 2)) | Abdominal pain (drug related AE, all grades) (Arm A QD 0.3 mg (N = 2)) | Blood creatinine increased (drug related AE, all grades) (Arm A QD 0.3 mg (N = 2)) | Colitis (drug related AE, Grade 3 and 4) (Arm A QD 0.3 mg (N = 2)) | Cough (drug related AE, Grade 3 and 4) (Arm A QD 0.3 mg (N = 2)) | Cough (drug related AE, all grades) (Arm A QD 0.3 mg (N = 2)) | Decreased Appetite (drug related AE, Grade 3 and 4) (Arm A QD 0.3 mg (N = 2)) | Decreased Appetite (drug related AE, all grades) (Arm A QD 0.3 mg (N = 2)) | Dehydration (drug related AE, Grade 3 and 4) (Arm A QD 0.3 mg (N = 2)) | Dehydration (drug related AE, all grades) (Arm A QD 0.3 mg (N = 2)) | Dermatitis acneiform (drug related AE, all grades) (Arm A QD 0.3 mg (N = 2)) | Diarrhoea (drug related AE, Grade 3 and 4) (Arm A QD 0.3 mg (N = 2)) | Diarrhoea (drug related AE, all grades) (Arm A QD 0.3 mg (N = 2)) | Dry mouth (drug related AE, all grades) (Arm A QD 0.3 mg (N = 2)) | Dry skin (drug related AE, all grades) (Arm A QD 0.3 mg (N = 2)) | Dysgeusia (drug related AE, all grades) (Arm A QD 0.3 mg (N = 2)) | Dyspepsia (drug related AE, all grades) (Arm A QD 0.3 mg (N = 2)) | Dysphonia (drug related AE, all grades) (Arm A QD 0.3 mg (N = 2)) | Fatigue (drug related AE, Grade 3 and 4) (Arm A QD 0.3 mg (N = 2)) | Fatigue (drug related AE, all grades) (Arm A QD 0.3 mg (N = 2)) | Flatulence (drug related AE, all grades) (Arm A QD 0.3 mg (N = 2)) | Hypocalcaemia (drug related AE, Grade 3 and 4) (Arm A QD 0.3 mg (N = 2)) | Hypocalcaemia (drug related AE, all grades) (Arm A QD 0.3 mg (N = 2)) | Hypokalaemia (drug related AE, Grade 3 and 4) (Arm A QD 0.3 mg (N = 2)) | Hypokalaemia (drug related AE, all grades) (Arm A QD 0.3 mg (N = 2)) | Hyponatraemia (drug related AE, Grade 3 and 4) (Arm A QD 0.3 mg (N = 2)) | Hyponatraemia (drug related AE, all grades) (Arm A QD 0.3 mg (N = 2)) | Ileus (drug related AE, Grade 3 and 4) (Arm A QD 0.3 mg (N = 2)) | Increased upper airway secretion (drug related AE, all grades) (Arm A QD 0.3 mg (N = 2)) | Laryngeal pain (drug related AE, all grades) (Arm A QD 0.3 mg (N = 2)) | Leucocytosis (drug related AE, Grade 3 and 4) (Arm A QD 0.3 mg (N = 2)) | Mouth ulceration (drug related AE, all grades) (Arm A QD 0.3 mg (N = 2)) | Nausea (drug related AE, Grade 3 and 4) (Arm A QD 0.3 mg (N = 2)) | Nausea (drug related AE, all grades) (Arm A QD 0.3 mg (N = 2)) | Pruritus (drug related AE, Grade 3 and 4) (Arm A QD 0.3 mg (N = 2)) | Pulmonary embolism (drug related AE, Grade 3 and 4) (Arm A QD 0.3 mg (N = 2)) | Rash maculopapular (drug related AE, all grades) (Arm A QD 0.3 mg (N = 2)) | Urticaria (drug related AE, Grade 3 and 4) (Arm A QD 0.3 mg (N = 2)) | Vision blurred (drug related AE, all grades) (Arm A QD 0.3 mg (N = 2)) | Vomiting (drug related AE, Grade 3 and 4) (Arm A QD 0.3 mg (N = 2)) | Vomiting (drug related AE, all grades) (Arm A QD 0.3 mg (N = 2)) | Weight decreased (drug related AE, all grades) (Arm A QD 0.3 mg (N = 2)) | Abdominal distension (drug related AE, all grades) (Arm A QD 0.6 mg (N = 2)) | Abdominal pain (drug related AE, Grade 3 and 4) (Arm A QD 0.6 mg (N = 2)) | Abdominal pain (drug related AE, all grades) (Arm A QD 0.6 mg (N = 2)) | Blood creatinine increased (drug related AE, all grades) (Arm A QD 0.6 mg (N = 2)) | Colitis (drug related AE, Grade 3 and 4) (Arm A QD 0.6 mg (N = 2)) | Cough (drug related AE, Grade 3 and 4) (Arm A QD 0.6 mg (N = 2)) | Cough (drug related AE, all grades) (Arm A QD 0.6 mg (N = 2)) | Decreased Appetite (drug related AE, Grade 3 and 4) (Arm A QD 0.6 mg (N = 2)) | Decreased Appetite (drug related AE, all grades) (Arm A QD 0.6 mg (N = 2)) | Dehydration (drug related AE, Grade 3 and 4) (Arm A QD 0.6 mg (N = 2)) | Dehydration (drug related AE, all grades) (Arm A QD 0.6 mg (N = 2)) | Dermatitis acneiform (drug related AE, all grades) (Arm A QD 0.6 mg (N = 2)) | Diarrhoea (drug related AE, Grade 3 and 4) (Arm A QD 0.6 mg (N = 2)) | Dry mouth (drug related AE, all grades) (Arm A QD 0.6 mg (N = 2)) | Dry skin (drug related AE, all grades) (Arm A QD 0.6 mg (N = 2)) | Dysgeusia (drug related AE, all grades) (Arm A QD 0.6 mg (N = 2)) | Dyspepsia (drug related AE, all grades) (Arm A QD 0.6 mg (N = 2)) | Dysphonia (drug related AE, all grades) (Arm A QD 0.6 mg (N = 2)) | Fatigue (drug related AE, Grade 3 and 4) (Arm A QD 0.6 mg (N = 2)) | Fatigue (drug related AE, all grades) (Arm A QD 0.6 mg (N = 2)) | Flatulence (drug related AE, all grades) (Arm A QD 0.6 mg (N = 2)) | Hypocalcaemia (drug related AE, Grade 3 and 4) (Arm A QD 0.6 mg (N = 2)) | Hypocalcaemia (drug related AE, all grades) (Arm A QD 0.6 mg (N = 2)) | Hypokalaemia (drug related AE, Grade 3 and 4) (Arm A QD 0.6 mg (N = 2)) | Hypokalaemia (drug related AE, all grades) (Arm A QD 0.6 mg (N = 2)) | Hyponatraemia (drug related AE, Grade 3 and 4) (Arm A QD 0.6 mg (N = 2)) | Hyponatraemia (drug related AE, all grades) (Arm A QD 0.6 mg (N = 2)) | Hypophosphataemia (drug related AE, Grade 3 and 4) (Arm A QD 0.6 mg (N = 2)) | Ileus (drug related AE, Grade 3 and 4) (Arm A QD 0.6 mg (N = 2)) | Increased upper airway secretion (drug related AE, all grades) (Arm A QD 0.6 mg (N = 2)) | Laryngeal pain (drug related AE, all grades) (Arm A QD 0.6 mg (N = 2)) | Leucocytosis (drug related AE, Grade 3 and 4) (Arm A QD 0.6 mg (N = 2)) | Mouth ulceration (drug related AE, all grades) (Arm A QD 0.6 mg (N = 2)) | Nausea (drug related AE, Grade 3 and 4) (Arm A QD 0.6 mg (N = 2)) | Pruritus (drug related AE, Grade 3 and 4) (Arm A QD 0.6 mg (N = 2)) | Pruritus (drug related AE, all grades) (Arm A QD 0.6 mg (N = 2)) | Pulmonary embolism (drug related AE, Grade 3 and 4) (Arm A QD 0.6 mg (N = 2))
4 (11) n (%): Cough (drug related AE, all grades) (All patients (N = 36)) | Dermatitis acneiform (drug related AE, all grades) (All patients (N = 36)) | Hypokalaemia (drug related AE, Grade 3 and 4) (All patients (N = 36)) | Nausea (drug related AE, Grade 3 and 4) (All patients (N = 36))
2 (6) n (%): Abdominal distension (drug related AE, all grades) (All patients (N = 36)) | Blood creatinine increased (drug related AE, all grades) (All patients (N = 36)) | Hypocalcaemia (drug related AE, all grades) (All patients (N = 36)) | Hyponatraemia (drug related AE, Grade 3 and 4) (All patients (N = 36)) | Hyponatraemia (drug related AE, all grades) (All patients (N = 36)) | Laryngeal pain (drug related AE, all grades) (All patients (N = 36)) | Sinusitis (drug related AE, all grades) (All patients (N = 36)) | Vision blurred (drug related AE, all grades) (All patients (N = 36)) | Weight decreased (drug related AE, all grades) (All patients (N = 36))
23 (64) n (%): Hypophosphataemia (drug related AE, all grades) (All patients (N = 36))
0: No. of patients with DLTs (Arm A QD 0.3 mg, 2 DLT evaluable patients)
≤ 24 h: Time for Gr 3/4 diarrhoea to resolve to Gr 1 (1.5 mg QD, with appropriate medical management)
11 (31) n (%): Rash (drug related AE, all grades) (All patients (N = 36))
29%: Gr 3/4 diarrhoea related to the study treatment (1.5 mg QD, 2 of 7 patients)
16 (44) n (%): Fatigue (drug related AE, all grades) (All patients (N = 36)) | Vomiting (drug related AE, all grades) (All patients (N = 36))

From publication PMC7523345 (Investigational new drugs, 2018)
